Among the data in ChEMBL document CHEMBL5252521, “Discovery and development of kibdelomycin, a new class of broad-spectrum antibiotics targeting the clinically proven bacterial type II topoisomerase” (Bioorg Med Chem, 2016) are IC50 and MIC values, retold here.

The target of assay [1] is DNA gyrase (Escherichia coli, UniProt P0AES4+P0AES6). Put plainly: Inhibition of Escherichia coli DNA gyrase supercoiling activity. Type of assay: protein-complex assay.
Assay [2] has as its system Staphylococcus aureus. The assay is described as follows: Antibacterial activity against wild type Staphylococcus aureus. It counts as functional.
The test system of assay [3] is Escherichia coli. The assay is described as follows: Antibacterial activity against wild type Escherichia coli. Type of assay: functional.
In assay [4] the target is Topoisomerase IV (Staphylococcus aureus, UniProt P0C1S7+P0C1U9). Put plainly: Inhibition of Staphylococcus aureus DNA topoisomerase 4 decatenation activity. It counts as protein-complex assay.
Topoisomerase IV, sequence (P0C1U9 whole entry): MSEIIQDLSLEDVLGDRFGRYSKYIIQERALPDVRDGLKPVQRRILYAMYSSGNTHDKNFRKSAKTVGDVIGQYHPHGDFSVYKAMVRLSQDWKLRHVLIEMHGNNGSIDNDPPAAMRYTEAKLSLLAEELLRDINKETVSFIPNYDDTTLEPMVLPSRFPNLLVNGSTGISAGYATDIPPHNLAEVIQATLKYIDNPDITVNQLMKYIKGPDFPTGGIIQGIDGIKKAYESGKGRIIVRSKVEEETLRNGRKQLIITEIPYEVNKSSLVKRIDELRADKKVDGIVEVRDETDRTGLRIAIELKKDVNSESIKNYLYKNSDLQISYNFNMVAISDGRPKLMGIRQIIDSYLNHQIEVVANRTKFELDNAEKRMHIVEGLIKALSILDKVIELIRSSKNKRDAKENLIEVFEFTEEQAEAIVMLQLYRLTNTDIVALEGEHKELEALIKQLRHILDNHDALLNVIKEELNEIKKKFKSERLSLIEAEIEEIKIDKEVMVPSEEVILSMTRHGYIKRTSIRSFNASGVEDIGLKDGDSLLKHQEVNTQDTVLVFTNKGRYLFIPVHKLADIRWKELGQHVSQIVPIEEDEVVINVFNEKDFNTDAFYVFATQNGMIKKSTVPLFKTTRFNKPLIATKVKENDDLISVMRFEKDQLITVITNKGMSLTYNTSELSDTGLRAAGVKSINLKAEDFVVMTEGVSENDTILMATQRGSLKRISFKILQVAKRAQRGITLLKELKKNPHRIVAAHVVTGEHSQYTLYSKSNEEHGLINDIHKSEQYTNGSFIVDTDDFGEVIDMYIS
Topoisomerase IV, sequence (P0C1S7 whole entry): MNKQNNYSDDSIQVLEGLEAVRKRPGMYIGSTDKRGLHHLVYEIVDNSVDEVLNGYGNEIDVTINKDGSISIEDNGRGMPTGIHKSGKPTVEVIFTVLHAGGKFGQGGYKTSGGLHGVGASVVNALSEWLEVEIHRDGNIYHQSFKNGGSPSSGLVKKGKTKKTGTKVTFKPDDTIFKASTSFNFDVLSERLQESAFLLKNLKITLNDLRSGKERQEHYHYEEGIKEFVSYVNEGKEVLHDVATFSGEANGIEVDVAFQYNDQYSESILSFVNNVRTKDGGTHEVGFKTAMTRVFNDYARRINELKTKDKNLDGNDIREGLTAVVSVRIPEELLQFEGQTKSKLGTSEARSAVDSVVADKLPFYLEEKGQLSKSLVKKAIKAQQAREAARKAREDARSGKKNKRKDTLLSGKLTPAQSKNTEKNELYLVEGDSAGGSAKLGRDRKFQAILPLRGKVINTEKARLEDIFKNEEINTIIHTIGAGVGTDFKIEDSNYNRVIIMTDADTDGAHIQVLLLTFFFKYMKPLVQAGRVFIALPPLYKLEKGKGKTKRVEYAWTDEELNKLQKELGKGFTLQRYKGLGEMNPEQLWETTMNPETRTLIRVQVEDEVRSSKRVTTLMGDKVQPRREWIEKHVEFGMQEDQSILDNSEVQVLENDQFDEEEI
Assay [5] concerns the target DNA gyrase (Staphylococcus aureus, UniProt P0A0K8+P20831). Put plainly: Inhibition of Staphylococcus aureus DNA gyrase supercoiling activity. Type of assay: protein-complex assay.
Assay [6] relates to Streptococcus pneumoniae. The assay is described as follows: Antibacterial activity against wild type Streptococcus pneumoniae in presence of 2.5% lysed horse blood. It counts as functional.
Assay [7] is described as follows: Inhibition of Escherichia coli DNA topoisomerase 4 decatenation activity.
Assay [8] concerns Pseudomonas aeruginosa. The assay is described as follows: Antibacterial activity against wild type Pseudomonas aeruginosa. Type of assay: functional.
Assay [9] relates to Staphylococcus aureus. Put plainly: Antibacterial activity against wild type Staphylococcus aureus incubated for 20 hrs by two-fold serial dilution method. Type of assay: functional.
For assay [10], the system named is Acinetobacter baumannii. The assay is described as follows: Antibacterial activity against wild type Acinetobacter baumannii incubated for 20 hrs by two-fold serial dilution method. Type of assay: functional.
In assay [11] the test system is Haemophilus influenzae. The assay is described as follows: Antibacterial activity against wild type Haemophilus influenzae incubated for 20 hrs by two-fold serial dilution method. It counts as functional.
Assay [12] relates to Pseudomonas aeruginosa. Put plainly: Antibacterial activity against wild type Pseudomonas aeruginosa incubated for 20 hrs by two-fold serial dilution method. Type of assay: functional.
For assay [13], the system named is Moraxella catarrhalis. The assay is described as follows: Antibacterial activity against wild type Moraxella catarrhalis incubated for 20 hrs by two-fold serial dilution method. Type of assay: functional.
Assay [14] relates to Escherichia coli. Put plainly: Antibacterial activity against wild type Escherichia coli incubated for 20 hrs by two-fold serial dilution method. Type of assay: functional.
Assay [15] relates to Enterococcus faecium. Put plainly: Antibacterial activity against vancomycin-resistant Enterococcus faecium incubated for 20 hrs by two-fold serial dilution method. Type of assay: functional.
The subject of assay [16] is Staphylococcus aureus. Put plainly: Antibacterial activity against methicillin-resistant Staphylococcus aureus incubated for 20 hrs by two-fold serial dilution method. Type of assay: functional.
In assay [17] the test system is Enterococcus faecalis. The assay is described as follows: Antibacterial activity against wild type Enterococcus faecalis incubated for 20 hrs by two-fold serial dilution method. Type of assay: functional.
Assay [18] deals with Streptococcus pneumoniae. The assay is described as follows: Antibacterial activity against wild type Streptococcus pneumoniae incubated for 20 hrs in presence of 2.5% lysed horse blood by two-fold serial dilution method. It counts as functional.
Assay [19] deals with Staphylococcus aureus. The assay is described as follows: Antibacterial activity against wild type Staphylococcus aureus incubated for 20 hrs in presence of 50% of human serum by two-fold serial dilution method. It counts as functional.
Assay [20] in a line: Inhibition of Escherichia coli DNA topoisomerase 4 ATPase activity.

Structures are written as SMILES. In brackets after ≈: the same amount, converted by molar mass.

DNA gyrase (Staphylococcus aureus, UniProt P0A0K8+P20831), sequence (P0A0K8 whole entry): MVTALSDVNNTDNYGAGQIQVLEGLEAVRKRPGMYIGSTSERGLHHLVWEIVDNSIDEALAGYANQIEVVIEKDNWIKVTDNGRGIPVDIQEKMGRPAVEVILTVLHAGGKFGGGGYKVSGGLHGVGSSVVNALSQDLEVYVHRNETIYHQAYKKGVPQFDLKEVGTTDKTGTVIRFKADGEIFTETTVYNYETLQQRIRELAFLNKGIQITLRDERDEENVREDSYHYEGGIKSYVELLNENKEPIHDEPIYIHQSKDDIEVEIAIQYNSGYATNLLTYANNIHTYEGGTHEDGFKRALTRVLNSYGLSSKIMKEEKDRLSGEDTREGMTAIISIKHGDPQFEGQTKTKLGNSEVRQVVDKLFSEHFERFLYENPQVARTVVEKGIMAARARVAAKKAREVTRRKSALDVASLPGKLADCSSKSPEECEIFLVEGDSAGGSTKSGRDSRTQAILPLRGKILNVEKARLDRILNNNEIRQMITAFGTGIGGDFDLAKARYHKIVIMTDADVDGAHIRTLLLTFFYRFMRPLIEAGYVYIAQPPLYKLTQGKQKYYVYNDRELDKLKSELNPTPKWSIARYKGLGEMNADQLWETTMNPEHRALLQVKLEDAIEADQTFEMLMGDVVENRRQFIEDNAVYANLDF
DNA gyrase (Staphylococcus aureus, UniProt P0A0K8+P20831), sequence (P20831 whole entry): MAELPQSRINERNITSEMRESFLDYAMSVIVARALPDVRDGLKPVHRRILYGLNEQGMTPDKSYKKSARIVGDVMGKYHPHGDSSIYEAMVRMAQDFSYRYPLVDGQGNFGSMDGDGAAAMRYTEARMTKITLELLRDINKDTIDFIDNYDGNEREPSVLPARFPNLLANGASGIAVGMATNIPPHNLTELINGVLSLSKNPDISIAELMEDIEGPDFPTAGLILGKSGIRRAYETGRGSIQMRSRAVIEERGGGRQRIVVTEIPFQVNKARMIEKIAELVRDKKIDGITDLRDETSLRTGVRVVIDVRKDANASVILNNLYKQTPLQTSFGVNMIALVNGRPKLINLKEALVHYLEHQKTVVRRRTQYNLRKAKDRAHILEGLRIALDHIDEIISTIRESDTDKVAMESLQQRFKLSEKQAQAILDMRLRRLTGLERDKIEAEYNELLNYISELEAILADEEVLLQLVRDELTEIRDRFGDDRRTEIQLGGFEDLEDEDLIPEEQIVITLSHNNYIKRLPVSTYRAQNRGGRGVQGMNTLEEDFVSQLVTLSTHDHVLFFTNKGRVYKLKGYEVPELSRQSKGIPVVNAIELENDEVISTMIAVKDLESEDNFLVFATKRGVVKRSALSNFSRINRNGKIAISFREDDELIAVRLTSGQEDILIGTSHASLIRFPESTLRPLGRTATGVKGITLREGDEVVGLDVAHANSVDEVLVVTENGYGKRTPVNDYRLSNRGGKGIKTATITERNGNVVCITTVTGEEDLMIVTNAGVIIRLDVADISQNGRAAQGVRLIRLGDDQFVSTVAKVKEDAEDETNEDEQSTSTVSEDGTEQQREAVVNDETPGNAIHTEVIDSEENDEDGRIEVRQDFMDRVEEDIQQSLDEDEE

In [1], `Cc1c(O)cc(O)c2c1C(=O)OC[C@H](NC(=O)[C@@H]1[C@H](O)CCN1C(=O)[C@@H](N)CO)C(=O)N[C@H](C(=O)N[C@@H](C)C(=O)O)CSC2` had an IC50 of 0.05 µM. In addition, the MIC in [2] and in assay [3] was above 128 µg/mL in each case.
As for `CO[C@@H]1[C@@H](OC(=O)c2ccc(C)[nH]2)[C@@H](O)[C@H](Oc2ccc3c(O)c(NC(=O)c4c[nH]c(C(=O)Nc5c(O)c6ccc(O[C@@H]7OC(C)(C)[C@H](OC)[C@@H](OC(=O)c8ccc(C)[nH]8)[C@H]7O)c(C)c6oc5=O)c4C)c(=O)oc3c2C)OC1(C)C`, the IC50 in [1] worked out at 0.03 µM; in [4], 100 µM; in assay [5] it was 0.006 µM; in assay [7] it was 5 µM. Besides, the MIC in [6] stood at 0.78 µg/mL; in assay [2], 0.0012 µg/mL (≈ 0.00108 µM); in assay [3], 6.25 µg/mL (≈ 5.63 µM); in assay [8] it was 12.5 µg/mL (≈ 11.3 µM).
Turning to `CO[C@@H]1[C@@H](OC(=O)c2ccc(C)[nH]2)[C@@H](O)[C@H](Oc2ccc3c(O)c(NC(=O)c4ccc(O)c(CC=C(C)C)c4)c(=O)oc3c2Cl)OC1(C)C` [CHLOROBIOCIN], the figures for the IC50 in assay [4] and in assay [7] were 10 µM and 3 µM, respectively. For the same compound, the MIC in [6] is 2 µg/mL; in assay [2], below 0.06 µg/mL.
As for `C[C@H]1COc2c(N3CCN(C)CC3)c(F)cc3c(=O)c(C(=O)O)cn1c23.C[C@H]1COc2c(N3CCN(C)CC3)c(F)cc3c(=O)c(C(=O)O)cn1c23.O` [LEVOFLOXACIN], the MIC in [9] is 0.125 µg/mL; in [10], 0.125 µg/mL; in assay [11], below 0.015 µg/mL; in assay [12], 0.5 µg/mL; in [13], 1 µg/mL; in assay [14], 0.031 µg/mL. The values for the MIC in assay [15] and in assay [16] were 4 µg/mL and 32 µg/mL, respectively.
With `CO[C@@H]1[C@@H](OC(N)=O)[C@@H](O)[C@H](Oc2ccc3c(O)c(NC(=O)c4ccc(O)c(CC=C(C)C)c4)c(=O)oc3c2C)OC1(C)C` [NOVOBIOCIN], the MIC in assay [9] was 0.25 µg/mL (≈ 0.408 µM); in [11], 0.12 µg/mL (≈ 0.196 µM); in assay [12], 100 µg/mL (≈ 163 µM); in assay [17], 32 µg/mL (≈ 52.2 µM); in assay [18], 1 µg/mL; in [13], above 32 µg/mL. Further, the MIC in [19] was 16 µg/mL; in [14], above 32 µg/mL; in [16], 0.06 µg/mL (≈ 0.0979 µM). Moreover, the values for the IC50 in assay [4], in assay [7] and in assay [20] were 35 µM, 10 µM and 0.45 µM, respectively.
